# Biological target: MAPK14 (human) (UniProt Q16539)
# Assay: Inhibition of MAPK14 Kinase Activity
# MAPK14 (human), sequence (Q16539 whole entry, looked up): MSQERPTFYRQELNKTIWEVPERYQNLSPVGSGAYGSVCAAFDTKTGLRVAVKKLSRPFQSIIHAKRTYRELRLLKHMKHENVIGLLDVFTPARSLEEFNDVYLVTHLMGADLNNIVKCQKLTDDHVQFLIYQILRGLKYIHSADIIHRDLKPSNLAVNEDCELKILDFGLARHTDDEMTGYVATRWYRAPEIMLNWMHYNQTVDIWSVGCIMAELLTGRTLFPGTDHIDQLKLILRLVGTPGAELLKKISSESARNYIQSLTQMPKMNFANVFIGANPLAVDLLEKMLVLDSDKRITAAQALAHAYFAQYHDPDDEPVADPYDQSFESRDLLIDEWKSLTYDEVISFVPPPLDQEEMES
row,SMILES,IC50
1,Cc1ccc(-n2c(=O)ccc3c(Nc4cccc(C)c4)c(C(=O)N4CCC[C@@H]4CO)sc32)cc1,< 1 µM
2,Cc1ccc(-n2c(=O)ccc3c(Nc4ccc(F)cc4F)c(C(=O)N4CC[C@@H](O)C4)sc32)cc1,< 1 µM
3,CC(C)(O)[C@@H]1CCCN1C(=O)c1sc2c(ccc(=O)n2-c2ccccc2)c1Nc1ccc(F)cc1F,< 1 µM
4,Cc1cccc(Nc2c(C(=O)N3CC[C@H](O)C3)sc3c2ccc(=O)n3-c2ccccc2Cl)c1,< 1 µM
5,Cc1cc(Nc2c(C(=O)N3CCC[C@H]3CN)sc3c2ccc(=O)n3-c2ccccc2)ccc1F,< 1 µM
6,COC[C@H]1CCCN1C(=O)c1sc2c(ccc(=O)n2-c2ccccc2)c1Nc1ccccc1,< 1 µM
7,Cc1cc(Nc2c(C(=O)N3CC[C@H](O)C3)sc3c2ccc(=O)n3-c2ccccc2)ccc1F,< 1 µM
8,O=C(c1sc2c(ccc(=O)n2-c2ccccc2)c1Nc1ccc(F)c(Cl)c1)N1CCC[C@H]1CO,< 1 µM
9,Cc1ccc(-n2c(=O)ccc3c(Nc4ccc(F)cc4F)c(C(=O)N4CC[C@H](O)C4)sc32)cc1,< 1 µM
10,COC[C@@H]1CCCN1C(=O)c1sc2c(ccc(=O)n2-c2ccccc2)c1Nc1ccccc1,< 1 µM
11,CN(C)C1CCN(C(=O)c2sc3c(ccc(=O)n3-c3ccccc3)c2Nc2ccc(F)cc2F)CC1,< 1 µM
12,NC[C@@H]1CCCN1C(=O)c1sc2c(ccc(=O)n2-c2ccccc2)c1Nc1ccc(F)cc1F,< 1 µM
13,CC(C)(O)[C@H]1CCCN1C(=O)c1sc2c(ccc(=O)n2-c2ccccc2)c1Nc1ccc(F)cc1F,< 1 µM
14,Cc1cccc(Nc2c(C(=O)N3CCC[C@@H]3CO)sc3c2ccc(=O)n3-c2ccccc2)c1,< 1 µM
15,Cc1cc(Nc2c(C(=O)N3CCC[C@@H]3CO)sc3c2ccc(=O)n3-c2ccccc2)ccc1F,< 1 µM
16,Cc1cc(Nc2c(C(=O)N3CCC[C@@H]3CO)sc3c2ccc(=O)n3-c2ccc(Cl)cc2)ccc1F,< 1 µM
17,N[C@H]1CCN(C(=O)c2sc3c(ccc(=O)n3-c3ccccc3)c2Nc2ccc(F)cc2F)C1,< 1 µM
18,Cc1ccc(-n2c(=O)ccc3c(Nc4ccc(F)cc4F)c(C(=O)N4CCC[C@@H]4CO)sc32)cc1,< 1 µM
19,O=C(c1sc2c(ccc(=O)n2-c2ccccc2)c1Nc1ccc(F)c(Cl)c1)N1CCC[C@@H]1CO,< 1 µM
20,O=C(c1sc2c(ccc(=O)n2-c2ccccc2)c1Nc1ccc(F)cc1F)N1CCC[C@@H]1CO,< 1 µM
21,O=C(c1sc2c(ccc(=O)n2-c2ccccc2)c1Nc1ccc(F)cc1F)N1CCC[C@H]1CO,< 1 µM
22,Cc1cccc(-n2c(=O)ccc3c(Nc4ccc(F)c(C)c4)c(C(=O)N4CCC[C@@H]4CO)sc32)c1,< 1 µM
23,Cc1cccc(Nc2c(C(=O)N3CCC[C@@H]3CO)sc3c2ccc(=O)n3-c2cccc(C)c2)c1,< 1 µM
24,N#Cc1ccccc1Nc1c(C(=O)N2CCC[C@@H]2CO)sc2c1ccc(=O)n2-c1ccccc1,< 1 µM

row,SMILES,IC50
1,NC1CCN(C(=O)c2sc3c(ccc(=O)n3-c3ccccc3)c2Nc2ccc(F)cc2F)CC1,< 1 µM
2,O=C(c1sc2c(ccc(=O)n2-c2ccccc2)c1Nc1ccc(F)cc1F)N1CC[C@@H](O)C1,< 1 µM
3,Cc1ccc(-n2c(=O)ccc3c(Nc4ccc(F)c(C)c4)c(C(=O)N4CC[C@@H](O)C4)sc32)cc1,< 1 µM
4,N#Cc1ccccc1Nc1c(C(=O)N2CC[C@H](O)C2)sc2c1ccc(=O)n2-c1ccccc1,< 1 µM
5,Cc1cc(Nc2c(C(=O)N3CC[C@@H](N)C3)sc3c2ccc(=O)n3-c2ccccc2)ccc1F,< 1 µM
6,Cc1cc(Nc2c(C(=O)N3CC[C@H](N)C3)sc3c2ccc(=O)n3-c2ccccc2)ccc1F,< 1 µM
7,O=C(c1sc2c(ccc(=O)n2-c2ccccc2)c1Nc1ccc(F)cc1F)N1CCC(O)CC1,< 1 µM
8,N#Cc1ccccc1Nc1c(C(=O)N2CC[C@@H](O)C2)sc2c1ccc(=O)n2-c1ccccc1,< 1 µM
9,O=C(c1sc2c(ccc(=O)n2CC2CC2)c1Nc1ccccc1)N1CCC[C@@H]1CO,< 1 µM
10,Cc1ccc(-n2c(=O)ccc3c(Nc4ccc(F)c(C)c4)c(C(=O)N4CC[C@H](O)C4)sc32)cc1,< 1 µM
11,O=C(c1sc2c(ccc(=O)n2-c2ccc(F)cc2)c1Nc1ccc(F)cc1F)N1CC[C@H](O)C1,< 1 µM
12,Cc1cc(Nc2c(C(=O)N3CC[C@@H](N(C)C)C3)sc3c2ccc(=O)n3-c2ccccc2)ccc1F,< 1 µM
13,O=C(c1sc2c(ccc(=O)n2-c2ccc(F)cc2)c1Nc1ccc(F)cc1F)N1CCC[C@@H]1CO,< 1 µM
14,O=C(c1sc2c(ccc(=O)n2-c2ccccc2Cl)c1Nc1ccc(F)cc1F)N1CC[C@@H](O)C1,< 1 µM
15,Cc1cc(Nc2c(C(=O)N3CC[C@H](N(C)C)C3)sc3c2ccc(=O)n3-c2ccccc2)ccc1F,< 1 µM
16,CN(C)C1CN(C(=O)c2sc3c(ccc(=O)n3-c3ccccc3)c2Nc2ccc(F)cc2F)C1,< 1 µM
17,O=C(c1sc2c(ccc(=O)n2-c2ccccc2)c1Nc1ccc(F)cc1F)N1CC[C@H](O)C1,< 1 µM
18,Cc1cc(Nc2c(C(=O)N3CC(O)C3)sc3c2ccc(=O)n3-c2ccccc2)ccc1F,< 1 µM
19,Cc1ccc(-n2c(=O)ccc3c(Nc4ccc(F)c(C)c4)c(C(=O)N4CCC[C@@H]4CO)sc32)cc1,< 1 µM
20,Cc1cc(Nc2c(C(=O)N3CC[C@H](O)C3)sc3c2ccc(=O)n3-c2ccc(F)cc2)ccc1F,< 1 µM
21,O=C(c1sc2c(ccc(=O)n2-c2ccccc2Cl)c1Nc1ccc(F)cc1F)N1CCC[C@@H]1CO,< 1 µM
22,Cc1cccc(-n2c(=O)ccc3c(Nc4ccc(F)c(C)c4)c(C(=O)N4CCC[C@H]4CO)sc32)c1,< 1 µM
23,O=C(c1sc2c(ccc(=O)n2-c2ccccc2)c1Nc1ccc(F)cc1F)N1C[C@H](O)[C@@H](O)C1,< 1 µM
24,Cc1cc(Nc2c(C(=O)N3CC[C@@H](O)C3)sc3c2ccc(=O)n3-c2ccccc2)ccc1F,< 1 µM

row,SMILES,IC50
1,N[C@@H]1CCN(C(=O)c2sc3c(ccc(=O)n3-c3ccccc3)c2Nc2ccc(F)cc2F)C1,< 1 µM
2,CN(C)[C@@H]1CCN(C(=O)c2sc3c(ccc(=O)n3-c3ccccc3)c2Nc2ccc(F)cc2F)C1,< 1 µM
3,Cc1cc(Nc2c(C(=O)N3CCC[C@@H]3CO)sc3c2ccc(=O)n3-c2ccccc2Cl)ccc1F,< 1 µM
4,N#Cc1cccc(Nc2c(C(=O)N3CCC[C@@H]3CO)sc3c2ccc(=O)n3-c2ccccc2)c1,< 1 µM
5,NC1CN(C(=O)c2sc3c(ccc(=O)n3-c3ccccc3)c2Nc2ccc(F)cc2F)C1,< 1 µM
6,O=C(c1sc2c(ccc(=O)n2-c2ccccc2)c1Nc1ccccc1)N1CCC[C@H]1CO,< 1 µM
7,O=C(c1sc2c(ccc(=O)n2-c2ccccc2)c1Nc1ccc(F)cc1F)N1C[C@@H](O)[C@H](O)C1,< 1 µM
8,O=C(c1sc2c(ccc(=O)n2-c2ccccc2)c1Nc1ccc(F)cc1F)N1CCCC(O)C1 (configuration not stated),< 1 µM
9,O=C(c1sc2c(ccc(=O)n2-c2ccccc2)c1Nc1ccccc1Cl)N1CCC[C@H]1CO,< 1 µM
10,O=C(c1sc2c(ccc(=O)n2-c2ccccc2)c1Nc1ccc(F)cc1F)N1CC(O)C1,< 1 µM
11,O=C(c1sc2c(ccc(=O)n2-c2ccccc2)c1Nc1ccc(F)cc1F)N1C[C@@H](O)[C@@H](O)C1,< 1 µM
12,N#Cc1ccccc1Nc1c(C(=O)N2CCC[C@H]2CO)sc2c1ccc(=O)n2-c1ccccc1,< 1 µM
13,Cc1cc(Nc2c(C(=O)N3CCC[C@H]3CO)sc3c2ccc(=O)n3-c2ccccc2)ccc1F,< 1 µM
14,O=C(c1sc2c(ccc(=O)n2-c2ccc(F)cc2)c1Nc1ccc(F)cc1F)N1CC[C@@H](O)C1,< 1 µM
15,O=C(c1sc2c(ccc(=O)n2-c2ccccc2)c1Nc1cccc(Cl)c1)N1CCC[C@@H]1CO,< 1 µM
16,NC1CCN(C(=O)c2sc3c(ccc(=O)n3-c3ccccc3)c2Nc2ccc(F)cc2F)C1 (configuration not stated),< 1 µM
17,Cc1cc(Nc2c(C(=O)N3CC[C@H](O)C3)sc3c2ccc(=O)n3-c2ccccc2Cl)ccc1F,< 1 µM
18,Cc1cc(Nc2c(C(=O)N3CCC[C@@H]3CO)sc3c2ccc(=O)n3-c2ccc(F)cc2)ccc1F,< 1 µM
19,NC[C@H]1CCCN1C(=O)c1sc2c(ccc(=O)n2-c2ccccc2)c1Nc1ccc(F)cc1F,< 1 µM
20,O=C(c1sc2c(ccc(=O)n2-c2ccccc2)c1Nc1ccccc1)N1CCC[C@@H]1CO,< 1 µM
21,O=C(c1sc2c(ccc(=O)n2-c2ccccc2)c1Nc1ccccc1Cl)N1CCC[C@@H]1CO,< 1 µM
22,O=c1ccc2c(Nc3ccc(F)cc3F)c(S(=O)(=O)N3CCC[C@@H]3CO)sc2n1-c1ccccc1,< 1 µM
23,O=C(c1sc2c(ccc(=O)n2-c2ccccc2Cl)c1Nc1ccc(F)cc1F)N1CC[C@H](O)C1,< 1 µM
24,CN(C)[C@H]1CCN(C(=O)c2sc3c(ccc(=O)n3-c3ccccc3)c2Nc2ccc(F)cc2F)C1,< 1 µM
